The supplement of paper PMC8149375

How the values were obtained:
Details in all cases: treatment: drug + dasatinib (fixed dose, not stated); 5 days
CAKI-1 [1] = assay: AUC of dose-response viability curve, drug + dasatinib, normalised to DMSO (arbitrary (AUC of normalised viability)); higher = less growth inhibition
Description: (§1)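 Primary HTS combination arm: 8 RCC cell lines treated with 8 doses (up to 10 uM) of each library drug plus a fixed dose of dasatinib (dose not stated) for 5 days; viability read by CellTiter-Glo and normalised to DMSO. GI50 was fitted with XLfit, AUC is the area under the dose-response curve, and minimum viability is the lowest fraction of DMSO viability across doses.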

A498 [2] = assay: as above
Description: as §1

UO-31 [3] = assay: as above
Description: as §1

TK-10 [4] = assay: as above
Description: as §1

SN12C [5] = assay: as above
Description: as §1

769-P [6] = assay: as above
Description: as §1

ACHN [7] = assay: as above
Description: as §1

786-O [8] = assay: as above
Description: as §1

CAKI-1 [9] = assay: minimum viability across doses, drug + dasatinib, relative to DMSO (fraction); higher = less growth inhibition
Description: as §1

A498 [10] = assay: as above
Description: as §1

UO-31 [11] = assay: as above
Description: as §1

TK-10 [12] = assay: as above
Description: as §1

SN12C [13] = assay: as above
Description: as §1

769-P [14] = assay: as above
Description: as §1

ACHN [15] = assay: as above
Description: as §1

786-O [16] = assay: as above
Description: as §1

CAKI-1 [17] = assay: GI50 of drug in presence of dasatinib; higher = less potent
Description: as §1

A498 [18] = assay: as above
Description: as §1

UO-31 [19] = assay: as above
Description: as §1

TK-10 [20] = assay: as above
Description: as §1

SN12C [21] = assay: as above
Description: as §1

769-P [22] = assay: as above
Description: as §1

786-O [23] = assay: as above
Description: as §1

Compound	AUC of dose-response viability curve (CAKI-1 [1])	AUC of dose-response viability curve (A498 [2])	AUC of dose-response viability curve (UO-31 [3])	AUC of dose-response viability curve (TK-10 [4])	AUC of dose-response viability curve (SN12C [5])	AUC of dose-response viability curve (769-P [6])	AUC of dose-response viability curve (ACHN [7])	AUC of dose-response viability curve (786-O [8])	minimum viability across doses (CAKI-1 [9])	minimum viability across doses (A498 [10])	minimum viability across doses (UO-31 [11])	minimum viability across doses (TK-10 [12])	minimum viability across doses (SN12C [13])	minimum viability across doses (769-P [14])	minimum viability across doses (ACHN [15])	minimum viability across doses (786-O [16])	GI50 of drug (CAKI-1 [17])	GI50 of drug (A498 [18])	GI50 of drug (UO-31 [19])	GI50 of drug (TK-10 [20])	GI50 of drug (SN12C [21])	GI50 of drug (769-P [22])	GI50 of drug (786-O [23])
CC1CCN(C(=O)CC#N)C[C@@H]1N(C)c1ncnc2[nH]ccc12.O=C(O)CC(O)(CC(=O)O)C(=O)O (stereo in doubt) + Cc1nc(Nc2ncc(C(=O)Nc3c(C)cccc3Cl)s2)cc(N2CCN(CCO)CC2)n1 [dasatinib]	2.56	3.5	3.69	2.51	2.48	2.6	1.7	1.92	0.567	0.887	0.934	0.647	0.69	0.681	0.304	0.439	> 10 µM	> 10 µM	> 10 µM	> 10 µM	> 10 µM	> 10 µM	–
O=C1NC(=O)/C(=C/c2ccc3nccnc3c2)S1 + Cc1nc(Nc2ncc(C(=O)Nc3c(C)cccc3Cl)s2)cc(N2CCN(CCO)CC2)n1 [dasatinib]	2.23	3.09	3.46	2.57	2.56	2.33	2.01	2.15	0.343	0.781	0.879	0.64	0.704	0.491	0.479	0.464	4.25 µM	> 10 µM	> 10 µM	> 10 µM	> 10 µM	8.39 µM	1.55 µM
Cc1ccccc1-n1c(Cn2cnc3c(N)ncnc32)nc2cccc(C)c2c1=O + Cc1nc(Nc2ncc(C(=O)Nc3c(C)cccc3Cl)s2)cc(N2CCN(CCO)CC2)n1 [dasatinib]	2.28	3.27	3.34	2.49	2.53	2.4	1.87	1.98	0.516	0.859	0.738	0.651	0.695	0.612	0.443	0.444	> 10 µM	> 10 µM	> 10 µM	> 10 µM	> 10 µM	> 10 µM	5.69 µM
OCCn1cc(-c2cnc3nnn(Cc4ccc5ncccc5c4)c3n2)cn1 + Cc1nc(Nc2ncc(C(=O)Nc3c(C)cccc3Cl)s2)cc(N2CCN(CCO)CC2)n1 [dasatinib]	2.02	3.25	3.41	2.57	2.32	2.44	1.77	2.79	0.408	0.872	0.926	0.688	0.614	0.651	0.448	0.702	–	> 10 µM	> 10 µM	> 10 µM	> 10 µM	> 10 µM	> 10 µM
CCn1c(N)c(C(=O)NC)c(=O)c2ccc(C#C[C@@](C)(O)COC)nc21 + Cc1nc(Nc2ncc(C(=O)Nc3c(C)cccc3Cl)s2)cc(N2CCN(CCO)CC2)n1 [dasatinib]	2.43	3.2	4.43	2.72	2.52	2.74	1.87	2.59	0.588	0.773	0.884	0.721	0.684	0.671	0.432	0.589	> 10 µM	> 10 µM	> 10 µM	> 10 µM	> 10 µM	> 10 µM	> 10 µM
O=c1cc(N2CCOCC2)oc2c(-c3ccccc3)cccc12 + Cc1nc(Nc2ncc(C(=O)Nc3c(C)cccc3Cl)s2)cc(N2CCN(CCO)CC2)n1 [dasatinib]	1.98	2.88	3.24	2.49	2.34	2.2	1.77	2.28	0.393	0.656	0.457	0.663	0.512	0.412	0.362	0.394	3.01 µM	> 10 µM	9.2 µM	> 10 µM	> 10 µM	5.32 µM	4.54 µM
NC(=O)c1ccc(-c2nc(-c3ccc4c(c3)OCO4)c(-c3ccccn3)[nH]2)cc1 + Cc1nc(Nc2ncc(C(=O)Nc3c(C)cccc3Cl)s2)cc(N2CCN(CCO)CC2)n1 [dasatinib]	2.18	3.17	3.57	2.75	2.41	1.77	2.08	2.24	0.456	0.592	0.844	0.636	0.446	0.234	0.317	0.485	3 µM	> 10 µM	> 10 µM	> 10 µM	> 10 µM	–	2.37 µM
C[C@@H]1CCN(C(=O)CC#N)C[C@@H]1N(C)c1ncnc2[nH]ccc12 + Cc1nc(Nc2ncc(C(=O)Nc3c(C)cccc3Cl)s2)cc(N2CCN(CCO)CC2)n1 [dasatinib]	2.53	3.91	4.82	2.59	2.51	2.6	1.62	3.03	0.685	1	1.23	0.7	0.695	0.664	0.363	0.743	> 10 µM	> 10 µM	> 10 µM	> 10 µM	> 10 µM	> 10 µM	> 10 µM
CCS(=O)(=O)N1CC(CC#N)(n2cc(-c3ncnc4[nH]ccc34)cn2)C1 + Cc1nc(Nc2ncc(C(=O)Nc3c(C)cccc3Cl)s2)cc(N2CCN(CCO)CC2)n1 [dasatinib]	2.4	4.02	4.24	2.61	2.51	2.46	1.78	2.58	0.47	1.07	0.917	0.689	0.692	0.625	0.44	0.399	8.06 µM	> 10 µM	> 10 µM	> 10 µM	> 10 µM	> 10 µM	6.65 µM
Cn1cnc(N)c2ncnc1-2 [3-Methyladenine] + Cc1nc(Nc2ncc(C(=O)Nc3c(C)cccc3Cl)s2)cc(N2CCN(CCO)CC2)n1 [dasatinib]	2.47	3.49	4.32	2.57	2.57	2.57	1.56	2.32	0.673	0.947	1.03	0.691	0.703	0.649	0.329	0.542	> 10 µM	> 10 µM	> 10 µM	> 10 µM	> 10 µM	> 10 µM	> 10 µM
Cc1ccc(-n2nc(C(C)(C)C)cc2NC(=O)Nc2ccc(OCCN3CCOCC3)c3ccccc23)cc1 [BIRB 796 (Doramapimod)] + Cc1nc(Nc2ncc(C(=O)Nc3c(C)cccc3Cl)s2)cc(N2CCN(CCO)CC2)n1 [dasatinib]	2.29	3.07	3.79	2.49	2.4	2.29	1.78	2.63	0.567	0.755	0.946	0.66	0.659	0.537	0.439	0.639	> 10 µM	> 10 µM	> 10 µM	> 10 µM	> 10 µM	> 10 µM	> 10 µM
CC[C@H](Nc1ncnc2[nH]cnc12)c1nc2cccc(F)c2c(=O)n1-c1ccccc1 [CAL-101 (GS-1101)] + Cc1nc(Nc2ncc(C(=O)Nc3c(C)cccc3Cl)s2)cc(N2CCN(CCO)CC2)n1 [dasatinib]	1.84	3.29	3.55	2.44	2.3	2.32	1.86	2.12	0.0955	0.843	0.362	0.493	0.546	0.477	0.341	0.298	–	> 10 µM	6.29 µM	8.33 µM	> 10 µM	7.53 µM	1.48 µM
O=C1Nc2ccccc2/C1=C1/Nc2ccccc2C1=O [Indirubin] + Cc1nc(Nc2ncc(C(=O)Nc3c(C)cccc3Cl)s2)cc(N2CCN(CCO)CC2)n1 [dasatinib]	2.02	3.41	3.15	2.48	2.36	2.38	1.65	1.76	0.497	0.941	0.799	0.593	0.624	0.632	0.435	0.394	> 10 µM	> 10 µM	> 10 µM	> 10 µM	> 10 µM	> 10 µM	–
COc1ccc2c(c1OC)N=C(NC(=O)c1cccnc1)N1CCN=C21 [PIK-90] + Cc1nc(Nc2ncc(C(=O)Nc3c(C)cccc3Cl)s2)cc(N2CCN(CCO)CC2)n1 [dasatinib]	1.82	3.11	2.69	2.3	2.21	2.03	1.7	1.76	0.136	0.762	0.434	0.552	0.52	0.268	0.235	0.388	0.424 µM	> 10 µM	3.82 µM	> 10 µM	2.26 µM	1.48 µM	–
Cc1cc(C(C)Nc2ccccc2)c2nc(N3CCOCC3)cc(=O)n2c1 (configuration not stated) [TGX-221] + Cc1nc(Nc2ncc(C(=O)Nc3c(C)cccc3Cl)s2)cc(N2CCN(CCO)CC2)n1 [dasatinib]	1.83	3.6	3.16	2.35	2.4	2.01	1.82	2.04	0.281	0.949	0.349	0.554	0.624	0.346	0.424	0.299	0.231 µM	> 10 µM	4.86 µM	> 10 µM	> 10 µM	–	–
